Reference: ChEMBL document CHEMBL5113478, “7-Azaindole, 2,7-diazaindole, and 1H-pyrazole as core structures for novel anticancer agents with potential chemosensitizing properties” (Eur J Med Chem, 2022)
Active and inactive are the calls of the source. The calls are words filed in the database; no cut-off is given here.

Key:
MOLT-4 [1] = experiment: Antiproliferative activity against human MOLT-4 cells assessed as […] cell proliferation at 10 uM incubated for 48 hrs by WST-1 assay relative to control; type: functional
MOLT-4 [2] = experiment: Antiproliferative activity against human MOLT-4 cells assessed as […] cell proliferation at 10 uM incubated for 48 hrs in presence of 2 uM of CDDP by WST-1 assay relative to control; type: functional
Jurkat [3] = experiment: Antiproliferative activity against human Jurkat cells assessed as […] cell proliferation at 10 uM incubated for 48 hrs by WST-1 assay relative to control; type: functional
Jurkat [4] = experiment: Antiproliferative activity against human Jurkat cells assessed as […] cell proliferation at 10 uM incubated for 48 hrs in presence of 2 uM of CDDP by WST-1 assay relative to control; type: functional
A2780 [5] = experiment: Antiproliferative activity against human A2780 cells assessed as […] cell proliferation at 10 uM incubated for 48 hrs by WST-1 assay relative to control; type: functional
A2780 [6] = experiment: Antiproliferative activity against human A2780 cells assessed as […] cell proliferation at 10 uM incubated for 48 hrs in presence of 2 uM of CDDP by WST-1 assay relative to control; type: functional
MCF7 [7] = experiment: Antiproliferative activity against human MCF7 cells assessed as […] cell proliferation at 10 uM incubated for 48 hrs by WST-1 assay relative to control; type: functional
MCF7 [8] = experiment: Antiproliferative activity against human MCF7 cells assessed as […] cell proliferation at 10 uM incubated for 48 hrs in presence of 10 uM of CDDP by WST-1 assay relative to control; type: functional
A549 [9] = experiment: Antiproliferative activity against human A549 cells assessed as […] cell proliferation at 10 uM incubated for 48 hrs by WST-1 assay relative to control; type: functional
A549 [10] = experiment: Antiproliferative activity against human A549 cells assessed as […] cell proliferation at 10 uM incubated for 48 hrs in presence of 15 uM of CDDP by WST-1 assay relative to control; type: functional
SAOS-2 [11] = experiment: Antiproliferative activity against human SAOS-2 cells assessed as […] cell proliferation at 10 uM incubated for 48 hrs by WST-1 assay relative to control; type: functional
SAOS-2 [12] = experiment: Antiproliferative activity against human SAOS-2 cells assessed as […] cell proliferation at 10 uM incubated for 48 hrs in presence of 15 uM of CDDP by WST-1 assay relative to control; type: functional
PANC-1 [13] = experiment: Antiproliferative activity against human PANC-1 cells assessed as […] cell proliferation at 10 uM incubated for 48 hrs by WST-1 assay relative to control; type: functional
PANC-1 [14] = experiment: Antiproliferative activity against human PANC-1 cells assessed as […] cell proliferation at 10 uM incubated for 48 hrs in presence of 15 uM of CDDP by WST-1 assay relative to control; type: functional
HT-29 [15] = experiment: Antiproliferative activity against human HT-29 cells assessed as […] cell proliferation at 10 uM incubated for 48 hrs by WST-1 assay relative to control; type: functional
HT-29 [16] = experiment: Antiproliferative activity against human HT-29 cells assessed as […] cell proliferation at 10 uM incubated for 48 hrs in presence of 15 uM of CDDP by WST-1 assay relative to control; type: functional
HeLa [17] = experiment: Antiproliferative activity against human HeLa cells assessed as […] cell proliferation at 10 uM incubated for 48 hrs by WST-1 assay relative to control; type: functional
[18] = biological target: T1, Aurora kinase A (Homo sapiens) (UniProt O14965); experiment: Inhibition of human Aurora-A assessed as residual activity at 10 uM relative to control
T1 sequence (whole entry): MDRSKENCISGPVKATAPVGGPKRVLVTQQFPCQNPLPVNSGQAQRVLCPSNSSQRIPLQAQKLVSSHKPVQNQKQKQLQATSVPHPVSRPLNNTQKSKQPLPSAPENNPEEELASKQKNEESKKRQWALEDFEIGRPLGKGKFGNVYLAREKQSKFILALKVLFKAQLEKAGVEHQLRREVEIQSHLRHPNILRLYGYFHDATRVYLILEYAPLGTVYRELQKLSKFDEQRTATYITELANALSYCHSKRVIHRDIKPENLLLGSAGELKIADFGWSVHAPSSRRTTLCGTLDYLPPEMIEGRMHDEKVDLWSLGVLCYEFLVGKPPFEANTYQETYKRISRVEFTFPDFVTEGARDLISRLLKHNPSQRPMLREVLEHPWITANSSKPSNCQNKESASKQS

[19] = biological target: T2, Cytoplasmic tyrosine-protein kinase BMX (Homo sapiens) (UniProt P51813); experiment: Inhibition of human Bmx assessed as residual activity at 10 uM relative to control
T2 sequence (whole entry): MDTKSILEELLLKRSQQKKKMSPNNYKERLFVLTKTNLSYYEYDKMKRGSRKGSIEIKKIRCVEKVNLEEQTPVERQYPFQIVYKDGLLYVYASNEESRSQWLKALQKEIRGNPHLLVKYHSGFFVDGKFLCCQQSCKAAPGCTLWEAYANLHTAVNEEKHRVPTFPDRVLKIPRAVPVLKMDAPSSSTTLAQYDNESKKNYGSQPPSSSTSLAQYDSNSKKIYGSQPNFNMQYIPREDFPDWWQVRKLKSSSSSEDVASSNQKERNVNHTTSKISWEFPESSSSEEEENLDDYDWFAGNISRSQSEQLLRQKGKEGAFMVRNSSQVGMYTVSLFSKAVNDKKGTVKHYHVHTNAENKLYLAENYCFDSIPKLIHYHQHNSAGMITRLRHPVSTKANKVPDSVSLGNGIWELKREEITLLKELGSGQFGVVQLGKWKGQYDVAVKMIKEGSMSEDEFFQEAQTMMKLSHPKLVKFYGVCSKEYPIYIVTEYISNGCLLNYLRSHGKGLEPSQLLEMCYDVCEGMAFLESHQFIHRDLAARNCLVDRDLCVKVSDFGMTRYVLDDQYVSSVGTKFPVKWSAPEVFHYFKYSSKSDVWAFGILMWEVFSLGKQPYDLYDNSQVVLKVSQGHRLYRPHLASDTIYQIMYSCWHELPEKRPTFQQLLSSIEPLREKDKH

[20] = tested on: Mast/stem cell growth factor receptor Kit (Homo sapiens), P10721 [V560G]; experiment: Inhibition of human cKit V560G mutant assessed as residual activity at 10 uM relative to control
[21] = biological target: Fibroblast growth factor receptor 2 (Homo sapiens) (UniProt P21802); experiment: Inhibition of human FGFR2 assessed as residual activity at 10 uM relative to control
[22] = biological target: Fibroblast growth factor receptor 3 (Homo sapiens) (UniProt P22607); experiment: Inhibition of human FGFR3 assessed as residual activity at 10 uM relative to control
[23] = biological target: Vascular endothelial growth factor receptor 1 (Homo sapiens) (UniProt P17948); experiment: Inhibition of human FLT1 assessed as residual activity at 10 uM relative to control
[24] = biological target: Vascular endothelial growth factor receptor 3 (Homo sapiens) (UniProt P35916); experiment: Inhibition of human FLT4 assessed as residual activity at 10 uM relative to control
[25] = biological target: Vascular endothelial growth factor receptor 2 (Homo sapiens) (UniProt P35968); experiment: Inhibition of human KDR assessed as residual activity at 10 uM relative to control
[26] = biological target: Protein kinase C alpha type (Homo sapiens) (UniProt P17252); experiment: Inhibition of human PKCalpha assessed as residual activity at 10 uM relative to control
[27] = biological target: Proto-oncogene tyrosine-protein kinase receptor Ret (Homo sapiens) (UniProt P07949); experiment: Inhibition of human Ret assessed as residual activity at 10 uM relative to control
[28] = biological target: Angiopoietin-1 receptor (Homo sapiens) (UniProt Q02763); experiment: Inhibition of human Tie2 assessed as residual activity at 10 uM relative to control
[29] = biological target: High affinity nerve growth factor receptor (Homo sapiens) (UniProt P04629); experiment: Inhibition of human TrkA assessed as residual activity at 10 uM relative to control
ATR/ATRIP (Homo sapiens) = ATR/ATRIP (Homo sapiens) (UniProt Q13535+Q8WXE1); experiment: Inhibition of human ATR/ATRIP assessed as residual activity at 10 uM relative to control; type: protein-complex assay
1321N1 [30] = experiment: Cytotoxicity against human 1321N1 cells assessed as reduction in cell viability at 15 uM incubated for 48 hrs by MTT assay; type: functional, cell-based
GBM = experiment: Cytotoxicity against patient-derived human GBM cells assessed as reduction in cell viability at 15 uM incubated for 48 hrs by MTT assay; type: functional
1321N1 [31] = experiment: Chemo-sensitizing activity against human 1321N1 cells at 15 uM incubated for 48 hrs in presence of TMZ by MTT assay; type: functional, cell-based
HeLa [32] = experiment: Antiproliferative activity against human HeLa cells assessed as […] cell proliferation at 10 uM incubated for 48 hrs in presence of 15 uM of CDDP by WST-1 assay relative to control; type: functional
[33] = Chemo-sensitizing activity against human 1321N1 cells at 15 uM incubated for 48 hrs in presence of TMZ by MTT assay relative to control; type: functional
[34] = biological target: Serine/threonine-protein kinase ATR (Homo sapiens, UniProt Q13535); experiment: Binding affinity to ATR (unknown origin) assessed as inhibition constant

Chain of Proto-oncogene tyrosine-protein kinase receptor Ret (Homo sapiens) (P07949 whole entry): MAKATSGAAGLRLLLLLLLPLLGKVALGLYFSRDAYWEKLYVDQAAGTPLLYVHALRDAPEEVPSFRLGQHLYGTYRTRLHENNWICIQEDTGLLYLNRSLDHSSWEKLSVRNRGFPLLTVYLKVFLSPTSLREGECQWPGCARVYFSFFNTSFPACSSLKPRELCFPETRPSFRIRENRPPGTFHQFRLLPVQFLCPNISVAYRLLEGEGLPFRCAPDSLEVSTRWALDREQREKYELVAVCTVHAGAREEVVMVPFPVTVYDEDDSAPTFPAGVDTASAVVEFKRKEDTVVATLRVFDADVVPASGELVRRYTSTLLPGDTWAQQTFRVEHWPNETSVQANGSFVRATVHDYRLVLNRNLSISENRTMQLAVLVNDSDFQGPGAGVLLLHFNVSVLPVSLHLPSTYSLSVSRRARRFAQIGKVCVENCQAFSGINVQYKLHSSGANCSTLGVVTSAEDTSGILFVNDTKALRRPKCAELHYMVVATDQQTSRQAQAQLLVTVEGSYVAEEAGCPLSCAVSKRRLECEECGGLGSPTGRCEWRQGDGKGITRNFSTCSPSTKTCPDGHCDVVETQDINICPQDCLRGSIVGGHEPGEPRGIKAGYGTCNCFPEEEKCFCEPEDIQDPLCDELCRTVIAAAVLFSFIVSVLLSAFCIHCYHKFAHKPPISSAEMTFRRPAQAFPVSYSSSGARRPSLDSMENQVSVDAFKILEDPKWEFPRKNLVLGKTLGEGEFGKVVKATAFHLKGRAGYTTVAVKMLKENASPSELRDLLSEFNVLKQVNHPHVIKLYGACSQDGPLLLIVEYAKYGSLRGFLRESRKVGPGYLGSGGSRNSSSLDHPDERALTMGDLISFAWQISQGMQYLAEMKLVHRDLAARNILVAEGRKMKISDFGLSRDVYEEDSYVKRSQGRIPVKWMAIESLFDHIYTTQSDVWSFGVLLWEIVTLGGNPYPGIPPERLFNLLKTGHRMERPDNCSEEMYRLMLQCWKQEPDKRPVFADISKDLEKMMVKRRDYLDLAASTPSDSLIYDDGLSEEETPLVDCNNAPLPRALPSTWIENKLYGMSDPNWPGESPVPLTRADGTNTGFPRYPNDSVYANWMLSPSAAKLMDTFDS
Chain of Fibroblast growth factor receptor 3 (Homo sapiens) (P22607 23-806 limits assumed): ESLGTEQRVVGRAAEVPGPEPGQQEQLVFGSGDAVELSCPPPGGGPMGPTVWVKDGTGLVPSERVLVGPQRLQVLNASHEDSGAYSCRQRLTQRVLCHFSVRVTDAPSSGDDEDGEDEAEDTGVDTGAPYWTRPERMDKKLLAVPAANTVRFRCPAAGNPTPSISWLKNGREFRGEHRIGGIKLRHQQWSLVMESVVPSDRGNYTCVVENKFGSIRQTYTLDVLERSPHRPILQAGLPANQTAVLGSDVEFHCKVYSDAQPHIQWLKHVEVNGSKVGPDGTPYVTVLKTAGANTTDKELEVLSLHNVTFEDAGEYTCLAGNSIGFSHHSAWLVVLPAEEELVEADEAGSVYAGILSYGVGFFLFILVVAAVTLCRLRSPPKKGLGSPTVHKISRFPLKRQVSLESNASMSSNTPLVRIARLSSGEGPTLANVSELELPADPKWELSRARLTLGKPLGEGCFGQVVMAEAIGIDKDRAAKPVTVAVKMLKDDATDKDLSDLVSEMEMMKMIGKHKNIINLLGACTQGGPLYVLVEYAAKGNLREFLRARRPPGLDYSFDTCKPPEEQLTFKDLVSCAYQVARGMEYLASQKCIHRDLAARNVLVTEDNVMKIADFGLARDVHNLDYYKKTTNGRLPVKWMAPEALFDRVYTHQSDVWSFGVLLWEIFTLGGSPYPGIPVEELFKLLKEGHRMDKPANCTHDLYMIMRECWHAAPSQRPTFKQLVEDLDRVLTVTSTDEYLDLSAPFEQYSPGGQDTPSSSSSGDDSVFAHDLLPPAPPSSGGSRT
Chain of Mast/stem cell growth factor receptor Kit (Homo sapiens), P10721 [V560G] (P10721 whole entry V560G): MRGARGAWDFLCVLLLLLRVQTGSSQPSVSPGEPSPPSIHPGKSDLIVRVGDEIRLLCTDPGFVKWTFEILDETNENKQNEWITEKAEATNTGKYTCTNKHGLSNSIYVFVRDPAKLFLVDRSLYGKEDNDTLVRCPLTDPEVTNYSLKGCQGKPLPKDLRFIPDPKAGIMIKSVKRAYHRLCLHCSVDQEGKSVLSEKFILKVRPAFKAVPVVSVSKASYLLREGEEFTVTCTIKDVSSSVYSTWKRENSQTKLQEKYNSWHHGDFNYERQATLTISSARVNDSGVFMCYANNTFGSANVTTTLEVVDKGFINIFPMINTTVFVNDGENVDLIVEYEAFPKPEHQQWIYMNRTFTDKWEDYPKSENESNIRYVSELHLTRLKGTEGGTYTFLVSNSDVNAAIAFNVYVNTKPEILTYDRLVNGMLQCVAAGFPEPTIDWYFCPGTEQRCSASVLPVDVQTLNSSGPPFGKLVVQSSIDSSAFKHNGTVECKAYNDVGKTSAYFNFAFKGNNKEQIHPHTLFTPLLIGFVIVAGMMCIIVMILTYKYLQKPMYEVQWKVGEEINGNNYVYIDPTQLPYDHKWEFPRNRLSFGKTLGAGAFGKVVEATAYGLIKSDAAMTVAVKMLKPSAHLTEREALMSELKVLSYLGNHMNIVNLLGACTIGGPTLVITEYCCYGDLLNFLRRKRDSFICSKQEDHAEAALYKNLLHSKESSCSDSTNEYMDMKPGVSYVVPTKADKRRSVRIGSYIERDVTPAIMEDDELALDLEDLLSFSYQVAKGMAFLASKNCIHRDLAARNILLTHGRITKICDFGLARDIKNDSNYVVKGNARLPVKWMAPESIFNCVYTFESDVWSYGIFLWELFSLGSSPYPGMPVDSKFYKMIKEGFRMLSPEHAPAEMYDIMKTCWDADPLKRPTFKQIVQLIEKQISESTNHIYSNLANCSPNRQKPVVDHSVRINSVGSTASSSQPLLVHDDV
Chain of Vascular endothelial growth factor receptor 1 (Homo sapiens) (P17948 whole entry): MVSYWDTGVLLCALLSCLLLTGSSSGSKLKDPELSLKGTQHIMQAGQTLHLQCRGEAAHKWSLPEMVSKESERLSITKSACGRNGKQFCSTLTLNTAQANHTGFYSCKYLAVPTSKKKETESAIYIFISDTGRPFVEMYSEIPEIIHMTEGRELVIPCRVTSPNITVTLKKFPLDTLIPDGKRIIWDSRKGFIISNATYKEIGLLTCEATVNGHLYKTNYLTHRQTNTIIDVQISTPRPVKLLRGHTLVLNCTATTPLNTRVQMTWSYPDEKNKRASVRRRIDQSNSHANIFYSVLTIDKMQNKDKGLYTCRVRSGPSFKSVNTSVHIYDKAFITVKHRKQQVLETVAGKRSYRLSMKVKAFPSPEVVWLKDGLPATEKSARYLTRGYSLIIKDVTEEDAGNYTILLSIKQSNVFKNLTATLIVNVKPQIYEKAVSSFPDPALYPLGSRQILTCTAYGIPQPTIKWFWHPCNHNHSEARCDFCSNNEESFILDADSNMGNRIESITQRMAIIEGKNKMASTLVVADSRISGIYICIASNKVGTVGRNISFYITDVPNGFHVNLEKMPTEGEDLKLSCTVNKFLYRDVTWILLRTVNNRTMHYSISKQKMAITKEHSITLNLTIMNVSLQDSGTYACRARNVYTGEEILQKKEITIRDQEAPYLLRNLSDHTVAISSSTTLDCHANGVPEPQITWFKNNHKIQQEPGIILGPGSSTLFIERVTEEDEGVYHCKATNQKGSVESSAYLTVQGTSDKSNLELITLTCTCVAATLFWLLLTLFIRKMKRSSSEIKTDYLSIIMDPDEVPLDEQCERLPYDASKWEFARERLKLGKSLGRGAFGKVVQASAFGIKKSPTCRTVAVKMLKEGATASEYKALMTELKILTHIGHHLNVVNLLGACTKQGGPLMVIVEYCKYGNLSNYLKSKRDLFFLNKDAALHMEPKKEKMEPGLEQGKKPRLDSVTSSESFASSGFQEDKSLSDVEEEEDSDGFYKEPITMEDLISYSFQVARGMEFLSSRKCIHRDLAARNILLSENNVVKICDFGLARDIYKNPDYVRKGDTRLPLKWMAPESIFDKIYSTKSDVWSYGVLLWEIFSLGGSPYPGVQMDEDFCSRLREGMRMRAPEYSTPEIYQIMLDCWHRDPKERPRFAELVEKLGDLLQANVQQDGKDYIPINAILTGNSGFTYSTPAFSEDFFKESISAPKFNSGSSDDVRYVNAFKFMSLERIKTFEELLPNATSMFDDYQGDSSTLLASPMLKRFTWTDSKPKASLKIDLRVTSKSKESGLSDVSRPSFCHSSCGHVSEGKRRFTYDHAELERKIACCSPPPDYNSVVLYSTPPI

Compound	Activity (MOLT-4 [1]) [%]	Activity (MOLT-4 [2]) [%]	Activity (Jurkat [3]) [%]	Activity (Jurkat [4]) [%]	Activity (A2780 [5]) [%]	Activity (A2780 [6]) [%]	Activity (MCF7 [7]) [%]	Activity (MCF7 [8]) [%]	Activity (A549 [9]) [%]	Activity (A549 [10]) [%]	Activity (SAOS-2 [11]) [%]	Activity (SAOS-2 [12]) [%]	Activity (PANC-1 [13]) [%]	Activity (PANC-1 [14]) [%]	Cell viability relative to control (HT-29 [15]) [%]	Activity (HT-29 [16]) [%]	Activity (HeLa [17]) [%]	Activity (1321N1 [30])	Activity (GBM)	Activity (HeLa [32]) [%]	other results
CCN1CCN(C2CCN(Cc3c[nH]c4ncc(-c5ccc(S(=O)(=O)C(C)C)cc5)cc34)CC2)CC1	87	46	87	46	87	46	87	46	87	46	87	46	87	46	87	46	87	Active	Active	46	Activity [18]: 86%; Activity [19]: 97%; Activity [20]: 83%; Activity [21]: 108%; Activity [22]: 92%; Activity [23]: 81%; Activity [24]: 80%; Activity [25]: 91%; Activity [26]: 88%; Activity [27]: 129%; Activity [28]: 84%; Activity [29]: 82%; Activity (ATR/ATRIP (Homo sapiens)): 96%; Activity (1321N1 [31]): Active
CC(C)S(=O)(=O)c1ccc(-c2cnc3[nH]nc(C(=O)N4CCC(c5ccccc5)CC4)c3c2)cc1	79	49	79	49	79	49	79	49	79	49	79	49	79	49	79	49	79	Active	50%	49	Activity [18]: 80%; Activity [19]: 98%; Activity [20]: 89%; Activity [21]: 105%; Activity [22]: 90%; Activity [23]: 61%; Activity [24]: 39%; Activity [25]: 73%; Activity [26]: 59%; Activity [27]: 77%; Activity [28]: 70%; Activity [29]: 108%; Activity (ATR/ATRIP (Homo sapiens)): 59%; Activity (1321N1 [31]): Active
CC(C)S(=O)(=O)c1ccc(-c2cnc3[nH]cc(CN4CCC(c5ccccc5)CC4)c3c2)cc1	77	46	77	46	77	46	77	46	77	46	77	46	77	46	77	46	77	Active	Active	46	Activity [33]: 100%
CC(C)S(=O)(=O)c1ccc(-c2cnc3[nH]cc(C(=O)N4CCC(c5ccccc5)CC4)c3c2)cc1	30	28	30	28	30	28	30	28	30	28	30	28	30	28	30	28	30	Active	Active	28	Activity [18]: 45%; Activity [19]: 56%; Activity [20]: 30%; Activity [21]: 57%; Activity [22]: 60%; Activity [23]: 49%; Activity [24]: 10%; Activity [25]: 52%; Activity [26]: 90%; Activity [27]: 16%; Activity [28]: 57%; Activity [29]: 42%; Activity (ATR/ATRIP (Homo sapiens)): 91%
Nc1nn2cc(F)cnc2c1C(=O)Nc1cncc(F)c1N1CCC(C(=O)N2CCN(C3COC3)CC2)CC1 [M4344]	–	–	–	–	–	–	–	–	–	–	–	–	–	–	–	–	–	–	–	–	Ki [34]: < 0.2 nM
